Measured values published in patent US7482341B2, “Pyridines” (Hoffmann-La Roche Inc., priority 2004, dated 2009).
pIC50: −log10 of the molar value.

Columns and labels:
11beta-HSD1 [1] = biological target: T1, 11beta-HSD1 (Homo sapiens, UniProt P28845); experiment: Microsome assay (cortisone to cortisol, ELISA); format: biochemical; set-up: made in house; host or cells: HEK293 cells (ATCC CRL-1573), transient transfection with pcDNA3 construct; microsomal fraction; settings: microsomes from HEK293 cells transiently expressing human 11beta-HSD1; 60 min, 37° C.; cortisol production 50% reduced; read-out: h 11-beta-HSD 1 IC50
T1 sequence (P28845 whole entry): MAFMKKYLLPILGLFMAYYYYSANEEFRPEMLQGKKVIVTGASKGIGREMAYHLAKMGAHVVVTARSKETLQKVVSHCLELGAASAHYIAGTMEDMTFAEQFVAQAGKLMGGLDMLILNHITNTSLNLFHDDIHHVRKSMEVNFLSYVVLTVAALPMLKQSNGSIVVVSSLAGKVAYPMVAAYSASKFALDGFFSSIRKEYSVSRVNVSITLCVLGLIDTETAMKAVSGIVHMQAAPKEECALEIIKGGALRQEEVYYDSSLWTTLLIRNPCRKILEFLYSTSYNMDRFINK
Experimental: Transient Expression and Partial Purification:
The cDNA encoding the human 11beta-HSD1 protein was cloned into the expression vector pcDNA3 ([…]). This construct (for details see Alex Odermatt et al.; J Biol Chem.,1999, Vol. 274, Issue 40, 28762-28770) was used to transiently express the protein in HEK293 cells (ATCC number: CRL-1573, described in Graham, F. L., Smiley, J., Russell, W. C., Nairn, R.; (1977)) using lipofectamine. 48h after transfection cells were washed twice with ice-cold PBS (Phsophate buffered Saline). To 1 volume of cell suspension in PBS 2 volumes of ice-cold lysis buffer (50 mM Tris; pH7.5; 1 mM EDTA; 100 mM NaCl) were added. The cells were lysed by Potter-homogenization (20 strokes). The resulting homogenate was sonicated wit a tip sonicator (10% output; 2×30 sec.) and cleared by a low speed centrifugation (10 min×9000 g; 4° C.). […]
Microsomes isolated from HEK293 cells transiently expressing human 11beta-HSD1 (for details see above) were incubated in assay buffer (100 mM NaCl; 1 mM EDTA; 1 mM EGTA; 1 mM MgCl; 250 mM Sucrose; 20 mM Tris pH 7.4; Cortisone 50-200 nM and NADPH 1 mM) together with different concentrations of test substances. […] The amount of Cortisol produced in this assay was determined using a commercially available, ELISA-based Cortisol-detection kit (Distributed by Assay Design, Inc.). […]

11beta-HSD1 [2] = biological target: T1, 11beta-HSD1; set-up: host or cells: human subjects (in vivo); settings: humans, treatment with carbenoxolone; cited from earlier work

| Structure (SMILES) | pIC50 (11beta-HSD1 [1]) | insulin sensitivity (11beta-HSD1 [2]) |
| --- | --- | --- |
| O=S(=O)(Nc1cccc(COCc2ccc(F)cc2)n1)c1ccc(F)cc1 [Example 105, 4-Fluoro-N-[6-(4-fluoro-benzyloxymethyl)-pyridin-2-yl]-benzenesulfonamide] | 7.80 |  |
| Cc1c(Cl)cccc1S(=O)(=O)Nc1ccc(Oc2ccc(F)cc2)cn1 [Example 186, 3-Chloro-N-[5-(4-fluoro-phenoxy)-pyridin-2-yl]-2-methyl-benzenesulfonamide benzenesulfonamide] | 8.30 |  |
| CC1(C)[C@@H](OC(=O)CCC(=O)O)CC[C@]2(C)[C@H]3C(=O)C=C4[C@@H]5C[C@@](C)(C(=O)O)CC[C@]5(C)CC[C@@]4(C)[C@]3(C)CC[C@@H]12 [carbenoxolone] |  | increase in insulin sensitivity |
